Our source for the inhibition values is patent publication US4902800A, “1-Substituted-4-pyrrolidinopiperidines as inhibitors of interleukin 1” (American Home Products Corporation, priority 1988, dated 1990).

In the test the test system is IL 1-induced release of neutral protease from rabbit articular chondrocytes. Put plainly: Inhibition of IL 1-induced release of neutral protease from rabbit articular chondrocytes (azocoll degradation). The class given is cell-based, rabbit (New Zealand White). The conditions noted are these: Oryctolagus cuniculus, Chondrocyte, test compound 10 min. prior to human IL 1, 24 h after IL 1 stimulation, read-out: % Inhibition (I.S.D.). How it is done:
The ability of the compounds of the inventions to inhibit interleukin 1 is measured by the ability of the test compounds to inhibit the IL 1-induced release of neutral protease from rabbit articular chondrocytes.
Male New Zealand White rabbits are anesthetized with 50 mg/kg of ketamine (i.m.) and killed by an intracardiac injection of 3 mls. of Nembutal. The knee joints of both legs are resected and the articular surfaces are exposed. Cartilage slices are obtained using scalpel and are placed in a tissue culture dish (100 mm diameter) containing 10 mls of Hank's balanced salt solution (HBSS). The chondrocytes within the cartilage slices are then liberated by a series of enzyme digestions. The slices are incubated for 10 min. at 37° C. in 0.05% hyaluronidase (Sigma H-3884), rinsed with HBSS and incubated with 0.2% trypsin (Sigma T-2395) for 10 min. at 37° C. The slices are rinsed again and incubated for 10 mins. at 37° C. with 1.2% collagenase (Sigma C-5138). The slices are then rinsed again with HBSS and resuspended in 10 ml of Ham's F-12 medium containing 10% fetal bovine calf serum (FCS) and 0.2% collagenase and incubated overnight at 37° C. in a 5% CO2 incubator. The next day, the medium containing the digested cartilage fragments and liberated chondrocytes is transferred to a 15 ml centrifuge tube and the cells are collected by centrifugation and washed twice and resuspended in Ham's F-12 medium. The cells are then plated into 24-well tissue culture plates (2×10^5 cells/well) and incubated at 37° C. until confluent (usually 4-6 days).
The confluent chondrocytes are rinsed twice with serum-free Ham's F-12 medium and 1 ml is added to each well. Fifty μl of purified human IL 1 (100 Units/ml; Genzyme Corporation, Boston, MA) is then added to stimulate these cells to secrete neutral protease. To measure drug effects, the cells are treated with test compound 10 min. prior to addition of IL 1. The standard screening dose is 10 μM. Twenty-four hours after IL 1 stimulation, supernatant fluids are collected and assayed for neutral protease activity.
The neutral protease activity of chondrocyte supernatant fluids is determined by their ability to degrade an insoluble protease substrate, azocoll (Sigma). Supernatants are treated for 10 min. at room temperature with 350 μM p-aminophenylmercuric acetate to activate the latent enzyme. Three hundred μl of supernatant is then mixed with 500 μl of a 20 mg/ml suspension of azocoll and incubated at 37° C. for 18-24 hrs. with gentle rocking. The mixtures are centrifuged and the amount of substrate hydrolyzed is determined by measuring the absorbance of the supernatant at 520 nm.
Drug effects are calculated as the % change in enzyme activity (absorbance)by supernatants from drug-treated chondrocytes relative to enzyme activity of supernatants from vehicle-treated chondrocytes as follows: [formula]

Usually inhibition stands for the change of the read-out against control, counted positive when it falls. In the case of `CS(=O)(=O)c1ccc(N2CCC(N3CCCC3)CC2)cc1` [Example 2, 1-[4-(Methylsulfonyl)phenyl]-4-(1-pyrrolidinyl)piperidine], the inhibition at 0.1 µM is 22%, the inhibition at 1 µM was determined as 87% and the inhibition at 10 µM stood at 91%.
The like results for `N#Cc1ccc(N2CCC(N3CCCC3)CC2)cc1` [Example 1, 4-[4-(1-Pyrrolidinyl)-1-piperidinyl]benzonitrile] were, in that order, 48%, 57% and 26%.
